Literature values as cited in article PMC6269118, “Populene D Analogues: Design, Concise Synthesis and Antiproliferative Activity” (Molecules, 2012).
Values after ≈ are worked out from the molar mass of the structure shown.

Assays:
Parameters in all cases: method as in PMID 18553924
Conditions in all cases: cited from earlier work
oral cancer (KB) = test system: oral cancer (KB)
B. subtilis = test system: B. subtilis
breast cancer (MCF-7) = test system: breast cancer (MCF-7)
cervical cancer (HeLa) = test system: cervical cancer (HeLa)
colon cancer (HT-29) = test system: colon cancer (HT-29)

Cc1cc2c(c(O)c1O)[C@H](C)CC1=C2[C@@H](C)COC1(C)C [Populene D]
IC50 (oral cancer (KB)): 3.10 µg/mL (≈ 10.7 µM)
MIC (B. subtilis): 4.69 µg/mL (≈ 16.3 µM)
IC50 (breast cancer (MCF-7)): 0.95 µg/mL (≈ 3.29 µM)
IC50 (cervical cancer (HeLa)): 1.85 µg/mL (≈ 6.41 µM)
IC50 (colon cancer (HT-29)): 2.37 µg/mL (≈ 8.22 µM)
